Measurements from ChEMBL document CHEMBL1144455, “A small molecule-kinase interaction map for clinical kinase inhibitors” (Nat Biotechnol, 2005).

Columns and labels:
[1] = target: T1, Ephrin type-A receptor 8 (Homo sapiens, UniProt P29322)
T1 sequence (P29322 whole entry): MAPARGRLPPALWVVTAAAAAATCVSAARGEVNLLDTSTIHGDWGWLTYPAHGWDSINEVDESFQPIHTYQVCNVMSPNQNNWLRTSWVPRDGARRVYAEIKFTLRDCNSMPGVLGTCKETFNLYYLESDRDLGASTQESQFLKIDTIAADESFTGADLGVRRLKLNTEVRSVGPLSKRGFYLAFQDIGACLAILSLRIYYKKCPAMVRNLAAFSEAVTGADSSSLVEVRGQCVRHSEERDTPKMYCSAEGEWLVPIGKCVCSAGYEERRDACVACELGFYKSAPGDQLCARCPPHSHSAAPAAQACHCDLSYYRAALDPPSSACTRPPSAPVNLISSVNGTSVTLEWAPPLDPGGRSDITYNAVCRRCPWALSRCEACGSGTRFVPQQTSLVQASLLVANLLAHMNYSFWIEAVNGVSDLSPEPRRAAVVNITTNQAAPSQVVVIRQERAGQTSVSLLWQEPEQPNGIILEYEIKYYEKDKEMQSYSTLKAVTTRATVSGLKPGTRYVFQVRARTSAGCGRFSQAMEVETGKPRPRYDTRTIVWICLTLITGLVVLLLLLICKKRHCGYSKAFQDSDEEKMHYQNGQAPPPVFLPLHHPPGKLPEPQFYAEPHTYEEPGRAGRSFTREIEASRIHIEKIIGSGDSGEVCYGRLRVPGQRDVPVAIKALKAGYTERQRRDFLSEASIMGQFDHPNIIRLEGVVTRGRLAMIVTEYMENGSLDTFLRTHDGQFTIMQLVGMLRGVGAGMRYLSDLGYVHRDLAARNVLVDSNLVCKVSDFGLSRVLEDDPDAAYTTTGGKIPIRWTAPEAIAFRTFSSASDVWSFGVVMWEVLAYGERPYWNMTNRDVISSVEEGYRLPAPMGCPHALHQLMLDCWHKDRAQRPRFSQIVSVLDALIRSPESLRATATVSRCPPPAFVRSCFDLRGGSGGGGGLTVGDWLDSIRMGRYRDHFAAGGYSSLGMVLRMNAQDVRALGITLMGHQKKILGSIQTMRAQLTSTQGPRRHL

[2] = target: Mitogen-activated protein kinase 11 (Homo sapiens, UniProt Q15759)
[3] = target: T2, Ephrin type-A receptor 3 (Homo sapiens, UniProt P29320)
T2 sequence (P29320 whole entry): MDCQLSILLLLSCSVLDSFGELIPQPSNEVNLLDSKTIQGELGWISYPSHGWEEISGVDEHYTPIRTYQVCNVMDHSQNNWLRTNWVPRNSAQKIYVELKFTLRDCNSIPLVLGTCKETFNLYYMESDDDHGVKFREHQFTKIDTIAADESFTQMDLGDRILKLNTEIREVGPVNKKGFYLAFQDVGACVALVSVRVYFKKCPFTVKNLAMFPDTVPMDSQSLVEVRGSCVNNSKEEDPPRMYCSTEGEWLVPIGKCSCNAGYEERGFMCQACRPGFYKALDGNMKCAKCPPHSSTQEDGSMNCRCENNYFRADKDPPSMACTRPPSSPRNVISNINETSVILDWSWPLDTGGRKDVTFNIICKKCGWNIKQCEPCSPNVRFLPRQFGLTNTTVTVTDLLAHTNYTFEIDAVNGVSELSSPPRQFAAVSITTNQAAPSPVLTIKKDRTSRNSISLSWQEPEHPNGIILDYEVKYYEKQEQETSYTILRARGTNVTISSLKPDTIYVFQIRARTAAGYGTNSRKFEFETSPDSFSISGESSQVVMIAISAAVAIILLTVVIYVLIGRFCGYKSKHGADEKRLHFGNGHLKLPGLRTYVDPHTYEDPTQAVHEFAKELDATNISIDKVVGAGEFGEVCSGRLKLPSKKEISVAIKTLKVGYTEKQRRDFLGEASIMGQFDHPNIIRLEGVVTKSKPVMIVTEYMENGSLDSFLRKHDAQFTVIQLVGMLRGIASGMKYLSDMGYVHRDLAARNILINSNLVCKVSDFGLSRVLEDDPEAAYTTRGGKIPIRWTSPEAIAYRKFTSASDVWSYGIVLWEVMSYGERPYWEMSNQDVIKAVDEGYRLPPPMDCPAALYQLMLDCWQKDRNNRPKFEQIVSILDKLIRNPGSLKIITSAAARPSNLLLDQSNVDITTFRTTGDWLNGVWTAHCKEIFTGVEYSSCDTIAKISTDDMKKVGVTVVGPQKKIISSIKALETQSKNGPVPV

[4] = target: Tyrosine-protein kinase Fgr (Homo sapiens, UniProt P09769)
[5] = target: Protein-tyrosine kinase 6 (Homo sapiens, UniProt Q13882)
[6] = target: Tyrosine-protein kinase Fer (Homo sapiens, UniProt P16591)
[7] = target: Ribosomal protein S6 kinase alpha-5 (Homo sapiens, UniProt O75582)
[8] = target: Casein kinase I isoform gamma-1 (Homo sapiens, UniProt Q9HCP0)
[9] = target: Tyrosine-protein kinase Lyn (Homo sapiens, UniProt P07948)
[10] = target: T3, Mitogen-activated protein kinase 12 (Homo sapiens, UniProt P53778)
T3 sequence (P53778 whole entry): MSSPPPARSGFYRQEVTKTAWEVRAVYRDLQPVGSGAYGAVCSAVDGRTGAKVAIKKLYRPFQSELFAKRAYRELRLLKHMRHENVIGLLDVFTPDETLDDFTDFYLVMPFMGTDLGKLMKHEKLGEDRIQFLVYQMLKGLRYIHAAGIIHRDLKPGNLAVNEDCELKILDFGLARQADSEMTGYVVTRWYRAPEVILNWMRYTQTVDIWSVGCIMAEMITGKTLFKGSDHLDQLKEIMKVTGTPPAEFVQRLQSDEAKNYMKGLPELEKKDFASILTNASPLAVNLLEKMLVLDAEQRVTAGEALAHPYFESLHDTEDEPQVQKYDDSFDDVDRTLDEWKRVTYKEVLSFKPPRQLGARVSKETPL

[11] = target: Serine/threonine-protein kinase pim-2 (Homo sapiens, UniProt Q9P1W9)
[12] = target: Serine/threonine-protein kinase 38-like (Homo sapiens, UniProt Q9Y2H1)
[13] = target: Calcium/calmodulin-dependent protein kinase kinase 2 (Homo sapiens, UniProt Q96RR4)
[14] = target: Mitogen-activated protein kinase kinase kinase 4 (Homo sapiens, UniProt Q9Y6R4)

Measured: Kd

Tyrosine-protein kinase Fgr, sequence (P09769 whole entry): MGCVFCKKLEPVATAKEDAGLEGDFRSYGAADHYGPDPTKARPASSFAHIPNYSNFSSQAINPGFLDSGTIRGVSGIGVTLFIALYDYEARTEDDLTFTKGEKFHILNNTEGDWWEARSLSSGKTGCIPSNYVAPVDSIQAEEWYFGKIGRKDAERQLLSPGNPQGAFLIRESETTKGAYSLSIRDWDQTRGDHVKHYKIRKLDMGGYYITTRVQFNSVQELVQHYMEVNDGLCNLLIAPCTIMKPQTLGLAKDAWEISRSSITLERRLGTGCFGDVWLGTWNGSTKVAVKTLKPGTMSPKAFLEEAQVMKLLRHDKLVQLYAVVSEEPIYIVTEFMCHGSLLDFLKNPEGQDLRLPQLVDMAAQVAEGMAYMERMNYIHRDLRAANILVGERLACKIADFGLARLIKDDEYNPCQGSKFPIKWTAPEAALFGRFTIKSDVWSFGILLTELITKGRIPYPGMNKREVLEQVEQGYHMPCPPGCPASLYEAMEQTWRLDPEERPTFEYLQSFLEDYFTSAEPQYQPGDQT
Tyrosine-protein kinase Fer, sequence (P16591 whole entry): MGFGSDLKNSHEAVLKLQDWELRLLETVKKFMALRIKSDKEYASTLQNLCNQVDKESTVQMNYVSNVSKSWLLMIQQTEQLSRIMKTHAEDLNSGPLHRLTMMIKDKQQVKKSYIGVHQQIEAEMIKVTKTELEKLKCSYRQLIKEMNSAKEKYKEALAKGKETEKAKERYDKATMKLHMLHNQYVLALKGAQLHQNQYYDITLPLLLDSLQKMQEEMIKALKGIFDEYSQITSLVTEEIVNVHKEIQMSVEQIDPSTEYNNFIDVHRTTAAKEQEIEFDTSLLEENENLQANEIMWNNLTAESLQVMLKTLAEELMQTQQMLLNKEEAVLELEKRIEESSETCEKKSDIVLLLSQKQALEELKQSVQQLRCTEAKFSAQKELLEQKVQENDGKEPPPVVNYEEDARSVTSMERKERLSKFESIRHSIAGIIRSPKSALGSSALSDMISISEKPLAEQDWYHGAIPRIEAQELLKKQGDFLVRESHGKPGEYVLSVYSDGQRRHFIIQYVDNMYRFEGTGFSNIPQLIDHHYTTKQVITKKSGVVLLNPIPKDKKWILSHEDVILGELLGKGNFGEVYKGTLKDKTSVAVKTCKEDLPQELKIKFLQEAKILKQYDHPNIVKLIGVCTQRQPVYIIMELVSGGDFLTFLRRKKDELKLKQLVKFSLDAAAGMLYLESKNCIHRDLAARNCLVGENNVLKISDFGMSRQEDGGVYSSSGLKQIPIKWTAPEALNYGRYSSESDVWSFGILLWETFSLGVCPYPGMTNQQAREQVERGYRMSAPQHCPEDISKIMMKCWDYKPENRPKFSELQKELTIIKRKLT
Serine/threonine-protein kinase pim-2, sequence (Q9P1W9 whole entry): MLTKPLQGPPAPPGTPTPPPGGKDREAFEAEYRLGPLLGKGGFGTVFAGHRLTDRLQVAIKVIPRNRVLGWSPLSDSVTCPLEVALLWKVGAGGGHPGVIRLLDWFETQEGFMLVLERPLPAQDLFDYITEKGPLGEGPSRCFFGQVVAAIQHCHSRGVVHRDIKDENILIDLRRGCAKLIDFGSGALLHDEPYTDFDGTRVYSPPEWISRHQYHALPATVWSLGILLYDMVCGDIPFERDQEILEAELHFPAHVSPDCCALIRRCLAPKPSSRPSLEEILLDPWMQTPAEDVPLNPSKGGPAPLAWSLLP
Tyrosine-protein kinase Lyn, sequence (P07948 whole entry): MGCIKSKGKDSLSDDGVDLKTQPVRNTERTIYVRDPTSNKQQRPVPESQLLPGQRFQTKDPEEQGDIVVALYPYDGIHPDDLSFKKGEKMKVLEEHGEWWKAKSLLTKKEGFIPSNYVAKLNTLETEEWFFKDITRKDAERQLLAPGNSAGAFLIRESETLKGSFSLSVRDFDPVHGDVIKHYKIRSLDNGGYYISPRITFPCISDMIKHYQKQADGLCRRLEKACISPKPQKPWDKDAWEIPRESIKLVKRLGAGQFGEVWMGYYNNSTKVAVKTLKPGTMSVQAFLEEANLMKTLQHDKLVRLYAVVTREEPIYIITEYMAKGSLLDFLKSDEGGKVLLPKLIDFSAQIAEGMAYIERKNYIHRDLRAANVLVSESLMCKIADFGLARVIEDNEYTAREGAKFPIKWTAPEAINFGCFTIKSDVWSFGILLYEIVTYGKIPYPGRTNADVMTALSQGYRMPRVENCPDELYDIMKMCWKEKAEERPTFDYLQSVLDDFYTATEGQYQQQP
Casein kinase I isoform gamma-1, sequence (Q9HCP0 whole entry, canonical isoform): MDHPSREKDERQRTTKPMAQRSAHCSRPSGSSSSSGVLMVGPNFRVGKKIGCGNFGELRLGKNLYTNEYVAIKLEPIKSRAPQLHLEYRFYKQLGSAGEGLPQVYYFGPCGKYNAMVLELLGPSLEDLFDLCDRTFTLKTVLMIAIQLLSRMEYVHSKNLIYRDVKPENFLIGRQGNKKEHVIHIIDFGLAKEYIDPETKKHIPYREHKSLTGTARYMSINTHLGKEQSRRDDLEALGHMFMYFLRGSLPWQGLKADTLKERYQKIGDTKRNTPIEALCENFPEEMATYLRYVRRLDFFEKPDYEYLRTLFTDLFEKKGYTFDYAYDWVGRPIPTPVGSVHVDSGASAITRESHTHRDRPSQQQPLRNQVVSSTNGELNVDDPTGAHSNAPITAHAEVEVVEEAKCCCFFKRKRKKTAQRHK
Calcium/calmodulin-dependent protein kinase kinase 2, sequence (Q96RR4 whole entry): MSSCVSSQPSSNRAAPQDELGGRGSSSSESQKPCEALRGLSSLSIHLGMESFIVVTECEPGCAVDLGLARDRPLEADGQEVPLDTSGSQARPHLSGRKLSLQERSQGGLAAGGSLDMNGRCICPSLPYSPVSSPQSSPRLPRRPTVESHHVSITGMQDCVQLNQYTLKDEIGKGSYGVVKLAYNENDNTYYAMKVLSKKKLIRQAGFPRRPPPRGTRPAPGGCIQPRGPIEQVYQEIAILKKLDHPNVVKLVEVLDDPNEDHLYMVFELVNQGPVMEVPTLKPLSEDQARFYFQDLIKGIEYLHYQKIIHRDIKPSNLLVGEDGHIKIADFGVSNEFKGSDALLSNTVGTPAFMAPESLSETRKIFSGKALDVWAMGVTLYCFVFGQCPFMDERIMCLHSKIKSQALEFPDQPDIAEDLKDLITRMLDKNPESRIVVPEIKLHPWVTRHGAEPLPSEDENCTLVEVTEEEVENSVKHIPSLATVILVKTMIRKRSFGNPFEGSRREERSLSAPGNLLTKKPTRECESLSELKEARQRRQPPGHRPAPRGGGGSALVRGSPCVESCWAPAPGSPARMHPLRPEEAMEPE
Ribosomal protein S6 kinase alpha-5, sequence (O75582 whole entry, canonical isoform): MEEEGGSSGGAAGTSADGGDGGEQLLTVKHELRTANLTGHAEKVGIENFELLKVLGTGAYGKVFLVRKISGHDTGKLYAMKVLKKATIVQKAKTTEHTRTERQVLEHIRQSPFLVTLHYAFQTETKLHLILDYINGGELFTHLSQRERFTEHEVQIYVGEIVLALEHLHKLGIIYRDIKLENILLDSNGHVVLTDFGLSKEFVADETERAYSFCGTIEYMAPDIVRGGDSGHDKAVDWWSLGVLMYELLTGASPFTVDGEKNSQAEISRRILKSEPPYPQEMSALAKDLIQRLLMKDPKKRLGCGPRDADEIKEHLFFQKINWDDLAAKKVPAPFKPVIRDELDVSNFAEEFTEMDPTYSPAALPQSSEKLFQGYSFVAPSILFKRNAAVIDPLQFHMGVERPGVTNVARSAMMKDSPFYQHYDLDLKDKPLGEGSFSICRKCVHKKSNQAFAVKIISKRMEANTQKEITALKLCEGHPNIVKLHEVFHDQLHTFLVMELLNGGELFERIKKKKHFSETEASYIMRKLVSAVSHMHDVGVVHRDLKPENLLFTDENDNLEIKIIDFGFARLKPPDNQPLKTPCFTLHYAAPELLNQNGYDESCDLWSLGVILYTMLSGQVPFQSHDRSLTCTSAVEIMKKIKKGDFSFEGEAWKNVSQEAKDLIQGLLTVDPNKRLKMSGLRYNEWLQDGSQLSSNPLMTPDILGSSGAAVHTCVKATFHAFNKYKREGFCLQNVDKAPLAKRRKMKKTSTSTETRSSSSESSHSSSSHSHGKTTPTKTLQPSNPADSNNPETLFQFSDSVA
Serine/threonine-protein kinase 38-like, sequence (Q9Y2H1 whole entry): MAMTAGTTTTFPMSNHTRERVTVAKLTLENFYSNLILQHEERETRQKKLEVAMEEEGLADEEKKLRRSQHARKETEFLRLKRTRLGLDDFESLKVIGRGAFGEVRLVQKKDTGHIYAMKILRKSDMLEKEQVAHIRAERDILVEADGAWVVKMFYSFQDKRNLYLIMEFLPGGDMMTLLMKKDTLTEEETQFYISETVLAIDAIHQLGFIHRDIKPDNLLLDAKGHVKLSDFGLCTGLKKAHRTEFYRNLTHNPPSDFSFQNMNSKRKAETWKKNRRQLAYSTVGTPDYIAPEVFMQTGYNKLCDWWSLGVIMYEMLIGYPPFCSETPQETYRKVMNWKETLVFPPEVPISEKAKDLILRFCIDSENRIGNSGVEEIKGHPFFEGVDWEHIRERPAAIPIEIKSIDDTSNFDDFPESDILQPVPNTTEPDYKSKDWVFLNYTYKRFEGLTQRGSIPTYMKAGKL
Protein-tyrosine kinase 6, sequence (Q13882 whole entry): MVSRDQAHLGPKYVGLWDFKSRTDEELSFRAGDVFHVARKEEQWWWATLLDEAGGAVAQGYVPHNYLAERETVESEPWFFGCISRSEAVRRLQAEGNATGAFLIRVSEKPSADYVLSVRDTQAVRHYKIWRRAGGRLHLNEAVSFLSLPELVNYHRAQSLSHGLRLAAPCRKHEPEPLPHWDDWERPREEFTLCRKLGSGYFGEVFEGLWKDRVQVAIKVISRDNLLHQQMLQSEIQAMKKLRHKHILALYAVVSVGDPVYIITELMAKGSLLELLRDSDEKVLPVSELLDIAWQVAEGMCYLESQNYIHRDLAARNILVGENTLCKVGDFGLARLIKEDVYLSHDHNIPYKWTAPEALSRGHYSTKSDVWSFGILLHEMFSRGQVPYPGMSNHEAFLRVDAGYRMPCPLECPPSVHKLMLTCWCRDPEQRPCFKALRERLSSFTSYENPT

C#Cc1cccc(Nc2ncnc3cc(OCCOC)c(OCCOC)cc23)c1 [ERLOTINIB]
Not Active: all assays above

Cc1ccc(NC(=O)c2ccc(CN3CCN(C)CC3)cc2)cc1Nc1nccc(-c2cccnc2)n1 [IMATINIB]
not listed: [1]
Not Active: all other assays above

O=c1ncn2nc(Sc3ccc(F)cc3F)ccc2c1-c1c(Cl)cccc1Cl [NEFLAMAPIMOD]
not listed: [1] | [2] | [4]
Not Active: all other assays above

CCOc1cc2ncc(C#N)c(Nc3ccc(F)c(Cl)c3)c2cc1NC(=O)/C=C/CN(C)C [PELITINIB]
Not Active: [2] | [4] | [5] | [7] | [8] | [10] | [11]

Oc1ccc(-c2nc(-c3ccc(F)cc3)c(-c3ccncc3)[nH]2)cc1 [SB-202190]
not listed: [2] | [5] | [10]
Not Active: all other assays above

C[S+]([O-])c1ccc(-c2nc(-c3ccc(F)cc3)c(-c3ccncc3)[nH]2)cc1 (stereo unspecified) [SB-203580]
not listed: [2] | [5] | [10]
Not Active: all other assays above

CC[C@H](CO)Nc1nc(NCc2ccccc2)c2ncn(C(C)C)c2n1 [SELICICLIB]
not listed: [8]
Not Active: all other assays above

Oc1c2ccccc2c2c3c(cccc13)N=N2 [SP-600125]
Not Active: [1] | [2] | [4] | [5] | [6] | [9] | [14]

COc1cc2c(N3CCN(C(=O)Nc4ccc(OC(C)C)cc4)CC3)ncnc2cc1OCCCN1CCCCC1 [TANDUTINIB]
Not Active: all assays above
